Patent US20070219180A1, “Muscle Relaxtion Accelerator and Therapeutic Agent for Muscular Tissue Diseases Such as Muscle Relaxation Failure” (priority 2004, published 2007)

Target: T1, troponin I and the actin-tropomyosin complex (Homo sapiens, UniProt P19429)
T1 construct: human myocardium-derived troponin I with a molecular weight of 24 kDa; purchased Calbiochem Inc (troponin I); Abcam PLC (troponin C); SIGMA (actin, tropomyosin); host or cells: troponin I from human myocardium
Assay: Experiments 6 and 7: affinity of troponin I and the actin-tropomyosin complex (co-precipitation at defined Ca concentration)
Type: binding
Description: A solution of 0.4 μg of troponin I (Calbiochem Inc) and 0.54 μg of troponin C (Abcam PLC) was added to 23 μl of distilled water, distributed to 4 test tubes, and centrifuged at 100,000 g for 1 hour (HITACHI Himac 120FC), and 20 μl of the resulting supernatant was collected and stored at 4° C. Then, 50 μl of 600 mM KCl solution, 50 μl of 200 mM MOPS (3-morpholinopropanesulfonic acid) [3-N (morpholino) propanesulfonic acid] (DOJINDO) solution, 50 μl of 20 mM MgCl2 solution, 5 μl of 10 mg/ml pepstatin A (SIGMA) solution, and 50 μl of 150 mM 2-mercaptoethanol (SIGMA) were added as a reaction solution to 99.4 μl of distilled water, and distributed to another 4 test tubes. Next, 3.2 μl of 1 mg/ml actin (SIGMA) and 2.4 μl of 1 mg/ml tropomyosin (SIGMA) were added and mixed, and the mixture was then centrifuged at 2000 g for 5 minutes at 25° C. using a centrifuge (HITACHI Himac CF7D2). The resulting supernatant was put into 4 new test tubes, 50 μl of 50 mM ATP (adenosine 5′-triphosphate) solution was added, and the solution was incubated at 25° C. with mixing for 30 minutes.
Next, 20 μl of the 100,000 g supernatant of troponin I and troponin C which was previously prepared was added to each test tube, and incubated at 25° C. with mixing for 30 minutes. Distilled water alone or 50 μl of a test solution in which the final concentration of the compound was adjusted to 10^−7, 10^−6 and 10^−5 M was added, and the resulting solution was incubated at 25° C. with mixing for 30 minutes.
[…] The solution was incubated at 25° C. with intermittent mixing for 60 minutes, and then centrifuged at 100,000 g for 120 minutes at 25° C. using a centrifuge (HITACHI Himac 120FC: brand name).
After centrifugation, the supernatant was removed, 1 ml of the reaction liquid (excluding Ca^2+ and the drug) was gently added so as not to suspend any precipitate, and the precipitate was again removed by suction; the procedure was repeated twice and the precipitate washed 3 times in total.
The washing solution was removed completely, 20 μl of a sample buffer for polyacrylamide gel electrophoresis (SDS-PAGE) was added and mixed well, the precipitate was suspended and heated for 5 minutes at 95° C., and then poured into a PAG MINI “No. 1” 10/20 gel (Daiichi Pure Chemicals Co., Ltd) and electrophoresized for about 1 hour at 40 mA. After electrophoresis, the suspension was silver-stained using “Daiichi” 2D-silver staining reagent (Daiichi Pure Chemicals Co., Ltd), and washed and dried. Finally, the suspension was scanned (EPSON ES-8500 scanner: brand name) and analyzed (Image J software: brand name).
In this experiment, at a calcium concentration in the test tube of 10^−6 M, the amount of troponin I precipitated in the absence of the compound was set at 1.0. Relatively, the amount of co-precipitation in the presence of 10^−7, 10^−6 and 10^−5 M concentrations of the compound was 1.4, 3.4, and 5.4, respectively; therefore, it was confirmed that the amount of troponin I precipitate increased with an increase in the compound concentration. The actin used in this experiment was swine skeletal muscle-derived actin with a molecular weight of 43 kDa, and was purchased from SIGMA. Tropomyosin used in this experiment was gizzard-derived tropomyosin with a molecular weight of 36 kDa, and was purchased from SIGMA. Troponin I used in this experiment was human myocardium-derived troponin I with a molecular weight of 24 kDa, and was purchased from Calbiochem Inc. Troponin C used in this experiment was human myocardium recombinant-derived troponin C with a molecular weight of 18 kDa, and was purchased from Abcam PLC. These proteins were separated by SDS-polyacrylamide gel electrophoresis and each band was clearly identifiable. […]

[1] = Ca 10^−6 M, the compound 10^−5 M

- Amount of precipitate of troponin I, Ratio (Ca 10^−8 M = 1.0) (Ca 10^−5 M, the compound 10^−5 M): 0.78
- Amount of precipitate of troponin I, Ratio (Ca 10^−8 M = 1.0) [1]: 0.81
- Amount of precipitate of troponin I, Ratio (no compound = 1.0) [1]: 5.4
- Amount of precipitate of troponin I, Ratio (no compound = 1.0) (Ca 10^−6 M, the compound 10^−6 M): 3.4
- Amount of precipitate of troponin I, Ratio (no compound = 1.0) (Ca 10^−6 M, the compound 10^−7 M): 1.4
- Amount of precipitate of troponin I, Ratio (Ca 10^−8 M = 1.0) (Ca 10^−7 M, the compound 10^−5 M): 0.94
- Amount of precipitate of troponin I, Ratio (Ca 10^−8 M = 1.0) (Ca 10^−8 M, the compound 10^−5 M (reference set at 1.0)): 1.0
SMILES: COc1ccc2c(c1)CN(C(=O)CCN1CCC(Cc3ccccc3)CC1)CCS2 [the compound, 4-[3-(4-benzylpiperidine-1-yl)propionyl]-7-methoxy-2,3,4,5-tetrahydro-1,4-benzothiazepine]
